Reference: patent US11053475B2, “Methods of expanding hematopoietic stem cells, compositions, and methods of use thereof” (WISCONSIN ALUMNI RESEARCH FOUNDATION, priority 2015, dated 2021)

Tests used:
[1] = system: Lin- hematopoietic precursors from E14.5 fetal livers; test: Erythroid maturation (CD71/Ter119, R1-R5) of E14.5 fetal liver hematopoietic precursors, flow cytometry; assay type: cell-based, mouse; conditions: Lin- HSPCs from fetal liver, DMSO as control, 3 days
Procedure: Primary erythroid precursor cell isolation. Primary erythroid precursors were isolated from E14.5 fetal livers using the EasySep™ negative selection Mouse Hematopoietic Progenitor Cell Enrichment Kit (StemCell Technologies). Briefly, fetal livers were dissociated by pipetting and resuspended at 5×10^7 cell/ml in PBS containing 2% FBS, 2.5 mM EDTA, and 10 mM glucose. EasySep™ Mouse Hematopoietic Progenitor Cell Enrichment Cocktail was added at 50 μg/ml supplemented with 2.5 μg/ml biotin-conjugated CD71 antibody (eBioscience). After 15 min incubation on ice, the cells were washed by centrifugation for […] at 1200 rpm at 4° C. and resuspended at 5×10^7 cell/ml in PBS containing 2% FBS, 2.5 mM EDTA, and 10 mM glucose, and EasySep™ Biotin Selection Cocktail was added at 100 μg/ml. After 15 min incubation at 4° C., EasySep™ Mouse Progenitor Magnetic Microparticles were added at 50 μg/ml. […]
(§1) Flow cytometry. […] APC-conjugated antibody CD31 (MEC13.3, Biolegend), PE-conjugated antibody c-Kit (2B8, eBioscience), PerCP-Cy5.5-conjugated antibody Scal (D7, eBioscience), APC-conjugated antibody Ter119 (TER119, eBioscience) and PE-conjugated CD71 (R17217, eBioscience) were used for flow cytometry and Fluorescence Activated Cell Sorting (FACS). Samples were analyzed on a FACSAria™ II cell sorter (BD Biosciences). […]

Gata2 expression = test: RT-PCR and Western blot of Gata2/GATA-2 and GATA-2 target genes in fetal liver cells and FACS-sorted R2 cells; assay type: cell-based, mouse; conditions: total fetal liver cells, compound treatment, 72 h
Procedure: Cell culture. G1E-ER-GATA-1 cells were cultured with or without 1 μM estradiol as previously described. Fetal liver erythroid precursor cells were cultured and maintained at a density of 2.5×10^5−1×10^6 cells/ml in StemPro®-34 (Gibco) supplemented with 10% nutrient supplement (Gibco), 2 mM L-glutamine (Cellgro), 1% Penicillin/streptomycin (Cellgro), 100 μM monothioglycerol (Sigma-Aldrich), 1 μM dexamethasone (Sigma-Aldrich), 0.5 U/ml of erythropoietin, and 1% conditioned medium from a kit ligand-producing CHO cell line for expansion. Cells were cultured in a humidified incubator at 37° C. (5% carbon dioxide).
Quantitative real-time RT-PCR. […] Real-time PCR was performed with SYBR green master mix (Applied Biosystems) and Product accumulation was monitored by SYBR green fluorescence using either a StepOnePlus™ or Viia™7 instrument (Applied Biosystems). Relative expression was determined from a standard curve of serial dilutions of cDNA samples, and values were normalized to 18S RNA expression. […]
as §1, with “(FACS).” for “(FACS). Samples were analyzed on a FACSAria™ II cell sorter (BD Biosciences).”

Row | SMILES | activity on erythropoiesis (flow analysis, R1-R5), compared with psychosine [1] | Gata2 mRNA level vs DMSO-treated control (Gata2 expression) | Gata2 primary transcript level vs DMSO-treated control (Gata2 expression)
1 | CCCCCCCCCCCCC/C=C/[C@@H](O)C(N)CO[C@H]1O[C@H](CO)[C@@H](O[C@@H]2O[C@H](CO)[C@H](O)[C@H](O)[C@H]2O)[C@H](O)[C@@H]1O (stereo partly drawn) [lactosylsphingosine] | not | – | –
2 | CCCCCCCCCCCCC/C=C/C(O)C(N)CO[C@@H]1O[C@H](CO)[C@H](O)[C@H](O)[C@H]1O (stereo partly drawn) [psychosine, galactosylsphingosine] | – | 2-3 fold | 2-3 fold
